According to US20020164348A1 (priority 2000, published 2002):

Legend:
poliovirus polymerase = poliovirus polymerase (Poliovirus type 1, UniProt P03300)
rhinovirus polymerase = rhinovirus polymerase (Human rhinovirus 14, UniProt P03303); assay type: biochemical
[1] = molecular target: T1, pJG-poliovirus 3D prey fusion (pJGPolio3D) (poliovirus Mahoney type 1, UniProt P03300 1749-2209); assay: yeast two-hybrid, colour on X-gal plates (- white); bait in row, prey in column
T1 sequence: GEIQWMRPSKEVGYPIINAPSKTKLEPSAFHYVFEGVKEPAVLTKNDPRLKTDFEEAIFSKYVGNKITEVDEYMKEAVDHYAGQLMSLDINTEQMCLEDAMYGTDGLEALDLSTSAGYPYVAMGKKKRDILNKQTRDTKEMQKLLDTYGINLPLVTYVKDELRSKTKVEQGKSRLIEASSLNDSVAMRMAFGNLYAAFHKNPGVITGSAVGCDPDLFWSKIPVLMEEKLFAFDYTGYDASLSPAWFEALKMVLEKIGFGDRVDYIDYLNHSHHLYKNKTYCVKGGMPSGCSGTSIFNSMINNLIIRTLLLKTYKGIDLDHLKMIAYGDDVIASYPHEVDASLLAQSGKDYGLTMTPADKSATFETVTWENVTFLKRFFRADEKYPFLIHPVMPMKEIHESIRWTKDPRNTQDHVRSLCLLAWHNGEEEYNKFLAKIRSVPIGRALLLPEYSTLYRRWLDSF

[2] = molecular target: poliovirus RNA-dependent RNA polymerase 3Dpol WT (Poliovirus type 1 (Mahoney), UniProt P03300 P03300:1749-2209); assay: filter; conditions: tags: none stated, expressed in E. coli BL21(DE3) pLysS, N-terminal Met removed; label: 32P (alpha-32P CTP, T7 transcript); 20 bp blunt self-complementary duplex

Chain of rhinovirus polymerase (P03303 1720-2179 limits assumed): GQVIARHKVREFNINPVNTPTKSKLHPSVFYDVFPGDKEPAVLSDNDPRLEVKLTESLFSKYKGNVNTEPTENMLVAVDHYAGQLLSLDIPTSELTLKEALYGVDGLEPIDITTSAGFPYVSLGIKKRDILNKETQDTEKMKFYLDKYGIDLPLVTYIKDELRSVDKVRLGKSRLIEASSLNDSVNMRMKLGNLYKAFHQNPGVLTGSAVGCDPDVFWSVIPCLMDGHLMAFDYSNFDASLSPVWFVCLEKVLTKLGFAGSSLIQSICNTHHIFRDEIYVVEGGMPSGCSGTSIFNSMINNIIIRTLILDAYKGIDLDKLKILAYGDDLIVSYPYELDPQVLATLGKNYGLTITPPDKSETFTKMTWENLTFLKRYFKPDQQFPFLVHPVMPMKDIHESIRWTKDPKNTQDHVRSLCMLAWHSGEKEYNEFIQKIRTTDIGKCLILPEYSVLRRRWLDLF

In the case of [Cl-].[Cl-].[Zn+2] [ZnCl2], the “effect on decrease in specific activity with decreasing polymerase concentration” value (poliovirus polymerase) is reported as “nearly eliminates the decrease in specific activity”.

For “KPHKCTFEGCRKSYSRSTNLRRHLNSH (SEQ ID NO:5) [Peptide 1]”, the “activity of the rhinovirus polymerase” value (rhinovirus polymerase) was “inhibits”.

B1: Lex202 vector control (bait vector without a polymerase) (other)
chain: MKALTARQQEVFDLIRDHISQTGMPPTRAEIAQRLGFRSPNAAEEHLKALARKGVIEIVSGASRGIRLLQEEEEGLPLVGRVAAGEPLLAQQHIEGHYQVDPSLFKPNADFLLRVSGMSMKDIGIMDGDLLAVHKTQDVRNGQVVVARIDDEVTVKRLKKQGNKVELLPENSEFKPIVVDLRQQSFTIEGLAVGVIRNGDWL
B1: no binding [1].

B2: 0.20 RNA (dsRNA)
RNA 1: GGCAGCUGCAUGCAGCUGCC
RNA 2: GGCAGCUGCAUGCAGCUGCC
B2: binds [2].
